Data on nine compounds can be found in patent US9617256B2 (priority 2007, dated 2017).

In test [1] the test system is AECO001 (ATCC25922). Briefly: MIC broth microdilution, AECO001. The settings on record: for MIC: Escherichia coli; for Ratio of MICs on AECO001 [Cpd (A = —CHCH3NH2)/Cpd (A = —C(CH3)2NH2)]: MIC of paired compound with A = —CHCH3NH2 divided by MIC of compound with A = —C(CH3)2NH2, n=2 data, pairs identical except for the A moiety. It is filed as cell-based, E. coli. Summed up: (§1)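 Strains were grown overnight at 35° C. on Mueller-Hinton agar, suspended to 0.5 McFarland and diluted to a final 3×10^5–7×10^5 CFU/mL. They were then exposed to 2-fold serial drug dilutions in cation-adjusted Mueller-Hinton broth and incubated 18-24 hours at 35° C.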
Background: In broth dilution the organism is exposed to a series of concentrations in liquid medium.

Test [2] deals with AECO063 (ATCC25922 bearing an acrAB mutation). As to the kind of experiment: microbe, parasite or virus in culture. The format is cell-based, E. coli. The settings on record: Escherichia coli, ATCC25922, read-out: MIC AECO063. Summed up:
as §1

Test [3] relates to APAE001 (ATCC27853). As to the kind of experiment: MIC broth microdilution, APAE001. The format is cell-based, P. aeruginosa. The settings on record: Pseudomonas aeruginosa, ATCC27853, read-out: MIC APAE001, APAE001 (ATCC27853). The essentials: as §1
For test [4], the system named is APAE006 (strain of P. aeruginosa in which all efflux pumps are inactivated). Briefly: microbe, parasite or virus in culture. It is filed as cell-based. The settings on record: Pseudomonas aeruginosa, read-out: MIC APAE006, APAE006, all efflux pumps inactivated. Summed up:
(§2)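 Inocula prepared from 0.5 McFarland suspensions (final 3×10^5–7×10^5 CFU/mL) were added to 2-fold drug dilution series in cation-adjusted Mueller-Hinton broth. Plates stood 18-24 hours at 35° C. under ambient air.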

In test [5] the test system is APAE006 in the presence of 8 micrograms per milliliter of polymyxin B nonapeptide. The format is cell-based, P. aeruginosa. The settings on record: APAE006 with 8 micrograms per milliliter polymyxin B nonapeptide. The essentials:
as §2

In test [6] the test system is AABA1060 (clinical isolate of Acinetobacter baumannii). Briefly: MIC broth microdilution, AABA1060. It is filed as cell-based. The settings on record: Acinetobacter baumannii, read-out: MIC AABA1060. Summed up:
as §1

Test [7] has as its system ASAU001 (laboratory strain of S. aureus, ATCC29213). As to the kind of experiment: MIC broth microdilution, ASAU001. It is filed as cell-based. The settings on record: Staphylococcus aureus, ATCC29213, read-out: MIC ASAU001. Summed up:
as §1

[8] abbreviates: ATCC25922, read-out: MIC AECO001.
Setting [9] is: ATCC25922, read-out: MIC AECO001 HSA AGP.

In brackets after ≈: the same amount, converted by molar mass. Where two headings read alike, the source gives them in different places. Bounds are passed on as bounds.

As to `CC(C)(N)C(NC(=O)c1ccc(C#CC#Cc2ccc(CNC3CC3)cc2)cc1)C(=O)NO` (centres unmarked) [Example 87-1, N-(2-Amino-1-hydroxycarbamoyl-2-methyl-propyl)-4-[4-(4-cyclopropylaminomethyl-phenyl)-buta-1,3-diynyl]-benzamide], the MIC in test [1] (setting [8]) was under 2 µg/mL; in test [1] (setting [9]) it was 2 to 16 µg/mL (≈ 4.5 to 36 µM); in test [2] it was under 2 µg/mL; in test [3], under 2 µg/mL; in test [4] it was under 2 µg/mL; in test [6] it was under 2 µg/mL. For the same compound, the MIC in test [7] is 16 to 64 µg/mL (≈ 36 to 144 µM). The “MIC APAE006 + PMBN” value in test [5] was “A (MIC's of 2.0 μg/mL or less = A)”.
On to `C[C@@H](N)[C@H](NC(=O)c1ccc(C#CC#CC2CCC2)cc1)C(=O)NO` [Example 91-17], for which the MIC is under 2 µg/mL in test [1] (setting [8]); 2 to 16 µg/mL (≈ 5.89 to 47.1 µM) in test [1] (setting [9]); under 2 µg/mL in test [2]; under 2 µg/mL in test [3]; under 2 µg/mL in test [4]; 2 to 16 µg/mL (≈ 5.89 to 47.1 µM) in test [6]. The MIC in test [7] was 16 to 64 µg/mL (≈ 47.1 to 189 µM). The “MIC APAE006 + PMBN” value in test [5] was “A (MIC's of 2.0 μg/mL or less = A)”.
`CC(C)C#CC#Cc1ccc(C(=O)N[C@H](C(=O)NO)C(C)(C)N)cc1` [Example 91-15]: the MIC is under 2 µg/mL in test [1] (setting [8]); 2 to 16 µg/mL (≈ 5.86 to 46.9 µM) in test [1] (setting [9]); under 2 µg/mL in test [2]; under 2 µg/mL in test [3]; under 2 µg/mL in test [4]; under 2 µg/mL in test [6]. For the same compound, the MIC in test [7] lay within 2 to 16 µg/mL (≈ 5.86 to 46.9 µM). Also, the “Ratio of MICs on AECO001 [Cpd (A = —CHCH3NH2)/Cpd (A = —C(CH3)2NH2)]” value in test [1] was determined as 6.5. The “MIC APAE006 + PMBN” value in test [5] was “A (MIC's of 2.0 μg/mL or less = A)”.
Take `C[C@@H](N)[C@H](NC(=O)c1ccc(C#Cc2ccc(COC3CC3)cc2)cc1)C(=O)NO` [Example 123-1, N-((1S,2R)-2-Amino-1-hydroxycarbamoyl-propyl)-4-(4-cyclopropoxymethyl-phenylethynyl)-benzamide]: the MIC is under 2 µg/mL in test [1] (setting [8]); 2 to 16 µg/mL (≈ 4.91 to 39.3 µM) in test [1] (setting [9]); under 2 µg/mL in test [2]; 2 to 16 µg/mL (≈ 4.91 to 39.3 µM) in test [3]; under 2 µg/mL in test [4]; 2 to 16 µg/mL (≈ 4.91 to 39.3 µM) in test [6]. For the same compound, the MIC in test [7] lay in the range of 16 to 64 µg/mL (≈ 39.3 to 157 µM). The “MIC APAE006 + PMBN” value in test [5] is on record as “A (MIC's of 2.0 μg/mL or less = A)”.
As to `NC[C@H](NC(=O)c1ccc(C#Cc2ccc(CNC(=O)CCC(=O)O)cc2)cc1)C(=O)NO` [Example 137-11], the MIC in test [1] (setting [8]) is over 64 µg/mL; in test [1] (setting [9]) it was over 64 µg/mL; in test [2], 16 to 64 µg/mL (≈ 35.4 to 141 µM); in test [3], 16 to 64 µg/mL (≈ 35.4 to 141 µM); in test [4] it was 2 to 16 µg/mL (≈ 4.42 to 35.4 µM); in test [6], over 64 µg/mL. In addition, the MIC in test [7] was over 64 µg/mL. In test [5], the “MIC APAE006 + PMBN” value is “B (MIC's of greater than 2.0 μg/mL to 16.0 μg/mL = B)”.
On to `CC(C)(O)[C@H](NC(=O)c1ccc(C#Cc2ccncc2)cc1)C(=O)NO` [Example 133-15], for which the MIC is 2 to 16 µg/mL (≈ 5.66 to 45.3 µM) in test [1] (setting [8]); 2 to 16 µg/mL (≈ 5.66 to 45.3 µM) in test [1] (setting [9]); under 2 µg/mL in test [2]; 2 to 16 µg/mL (≈ 5.66 to 45.3 µM) in test [3]; under 2 µg/mL in test [4]; 2 to 16 µg/mL (≈ 5.66 to 45.3 µM) in test [6]. Besides, the MIC in test [7] fell in the range of 16 to 64 µg/mL (≈ 45.3 to 181 µM). In test [5], the “MIC APAE006 + PMBN” value is listed as “A (MIC's of 2.0 μg/mL or less = A)”.
On to `CC(C)(N)[C@H](NC(=O)c1ccc(C#Cc2ccccc2)cc1)C(=O)NO` [Example 133-6], for which the MIC in test [1] (setting [8]), in test [1] (setting [9]), in test [2], in test [3], in test [4] and in test [6] was under 2 µg/mL throughout. Further, in test [7], the MIC was 2 to 16 µg/mL (≈ 5.69 to 45.5 µM). In addition, the “Ratio of MICs on AECO001 [Cpd (A = —CHCH3NH2)/Cpd (A = —C(CH3)2NH2)]” value in test [1] stood at 20.8. Further, the “MIC APAE006 + PMBN” value in test [5] was “A (MIC's of 2.0 μg/mL or less = A)”.
Consider `CC(C)(N)[C@H](NC(=O)c1ccc(C#CC#Cc2ccc(CN3CCS(=O)(=O)CC3)cc2)cc1)C(=O)NO` [Example 86-7], for which the MIC in test [1] (setting [8]) is under 2 µg/mL; in test [1] (setting [9]), 2 to 16 µg/mL (≈ 3.83 to 30.6 µM); in test [2] it was under 2 µg/mL; in test [3], 2 to 16 µg/mL (≈ 3.83 to 30.6 µM); in test [4], under 2 µg/mL; in test [6] it was under 2 µg/mL. Besides, the MIC in test [7] is 16 to 64 µg/mL (≈ 30.6 to 122 µM). The “MIC APAE006 + PMBN” value in test [5] was “A (MIC's of 2.0 μg/mL or less = A)”.
Regarding `CC(C)(O)[C@H](NC(=O)c1ccc(C#C/C=C/c2ccc(F)cc2)cc1)C(=O)NO` [Example 106-7], the MIC in test [1] (setting [8]) is under 2 µg/mL; in test [1] (setting [9]), 2 to 16 µg/mL (≈ 5.05 to 40.4 µM); in test [2], under 2 µg/mL; in test [3] it was 2 to 16 µg/mL (≈ 5.05 to 40.4 µM); in test [4] it was under 2 µg/mL; in test [6], 2 to 16 µg/mL (≈ 5.05 to 40.4 µM). Also, the MIC in test [7] fell in the range of 16 to 64 µg/mL (≈ 40.4 to 161 µM). In test [5], the “MIC APAE006 + PMBN” value is listed as “A (MIC's of 2.0 μg/mL or less = A)”.
